Assay: (§1) The drug is tested on Z-019 corresponding to rat gut metagenome with ENA study accession number: PRJEB37062 and ENA sample accession number: ERS12561818 for biotransformation under anaerobic condition. The drug concentrations were measured over 9 timepoints collected between 0 and 24 hours of incubation by liquid-chromatography-coupled mass spectrometry (LC–MS)
Conditions: 2 µM
Also: call rule not given here.

| Bacterial Biotransformation | SMILES |
| --- | --- |
| Compound NOT metabolized | CO[C@]12C[C@@H](COC(=O)c3cncc(Br)c3)CN(C)[C@@H]1Cc1cn(C)c3cccc2c13 [NICERGOLINE] |
| Compound NOT metabolized | CC(=O)OCC(=O)[C@@]1(O)[C@@H](C)C[C@H]2[C@@H]3CCC4=CC(=O)C=C[C@]4(C)[C@@]3(F)[C@@H](O)C[C@@]21C [BETAMETHASONE ACETATE] |

Assay: as §1, with “on Z-017” for “on Z-019”, “to mouse” for “to rat”, “number: ERS12561816” for “number: ERS12561818”
Conditions: 2 µM

| Bacterial Biotransformation | SMILES |
| --- | --- |
| Compound NOT metabolized | CO[C@]12C[C@@H](COC(=O)c3cncc(Br)c3)CN(C)[C@@H]1Cc1cn(C)c3cccc2c13 [NICERGOLINE] |
| Compound metabolized | CC(=O)OCC(=O)[C@@]1(O)[C@@H](C)C[C@H]2[C@@H]3CCC4=CC(=O)C=C[C@]4(C)[C@@]3(F)[C@@H](O)C[C@@]21C [BETAMETHASONE ACETATE] |

Assay: as §1, with “on Z-016” for “on Z-019”, “to mouse” for “to rat”, “number: ERS12561815” for “number: ERS12561818”
Conditions: 2 µM

| Bacterial Biotransformation | SMILES |
| --- | --- |
| Compound metabolized | CO[C@]12C[C@@H](COC(=O)c3cncc(Br)c3)CN(C)[C@@H]1Cc1cn(C)c3cccc2c13 [NICERGOLINE] |
| Compound metabolized | CC(=O)OCC(=O)[C@@]1(O)[C@@H](C)C[C@H]2[C@@H]3CCC4=CC(=O)C=C[C@]4(C)[C@@]3(F)[C@@H](O)C[C@@]21C [BETAMETHASONE ACETATE] |

Assay: as §1, with “Z-014” for “Z-019”, “ERS12561814” for “ERS12561818”
Conditions: 2 µM

| Bacterial Biotransformation | SMILES |
| --- | --- |
| Compound metabolized | CO[C@]12C[C@@H](COC(=O)c3cncc(Br)c3)CN(C)[C@@H]1Cc1cn(C)c3cccc2c13 [NICERGOLINE] |
| Compound NOT metabolized | CC(=O)OCC(=O)[C@@]1(O)[C@@H](C)C[C@H]2[C@@H]3CCC4=CC(=O)C=C[C@]4(C)[C@@]3(F)[C@@H](O)C[C@@]21C [BETAMETHASONE ACETATE] |

Assay: as §1, with “on Z-013” for “on Z-019”, “to rabbit” for “to rat”, “number: ERS12561813” for “number: ERS12561818”
Conditions: 2 µM

| Bacterial Biotransformation | SMILES |
| --- | --- |
| Compound metabolized | CO[C@]12C[C@@H](COC(=O)c3cncc(Br)c3)CN(C)[C@@H]1Cc1cn(C)c3cccc2c13 [NICERGOLINE] |
| Compound metabolized | CC(=O)OCC(=O)[C@@]1(O)[C@@H](C)C[C@H]2[C@@H]3CCC4=CC(=O)C=C[C@]4(C)[C@@]3(F)[C@@H](O)C[C@@]21C [BETAMETHASONE ACETATE] |

Assay: as §1, with “Z-008” for “Z-019”, “to” for “to rat gut”, “ERS12561808” for “ERS12561818”
Conditions: 2 µM

| Bacterial Biotransformation | SMILES |
| --- | --- |
| Compound NOT metabolized | CO[C@]12C[C@@H](COC(=O)c3cncc(Br)c3)CN(C)[C@@H]1Cc1cn(C)c3cccc2c13 [NICERGOLINE] |
| Compound NOT metabolized | CC(=O)OCC(=O)[C@@]1(O)[C@@H](C)C[C@H]2[C@@H]3CCC4=CC(=O)C=C[C@]4(C)[C@@]3(F)[C@@H](O)C[C@@]21C [BETAMETHASONE ACETATE] |

Assay: as §1, with “on WLS-310” for “on Z-019”, “to human” for “to rat”, “number: ERS12561785” for “number: ERS12561818”
Conditions: 2 µM

| Bacterial Biotransformation | SMILES |
| --- | --- |
| Compound NOT metabolized | CO[C@]12C[C@@H](COC(=O)c3cncc(Br)c3)CN(C)[C@@H]1Cc1cn(C)c3cccc2c13 [NICERGOLINE] |
| Compound metabolized | CC(=O)OCC(=O)[C@@]1(O)[C@@H](C)C[C@H]2[C@@H]3CCC4=CC(=O)C=C[C@]4(C)[C@@]3(F)[C@@H](O)C[C@@]21C [BETAMETHASONE ACETATE] |

Assay: as §1, with “on WLS-220” for “on Z-019”, “to human” for “to rat”, “number: ERS12561769” for “number: ERS12561818”
Conditions: 2 µM

| Bacterial Biotransformation | SMILES |
| --- | --- |
| Compound NOT metabolized | CO[C@]12C[C@@H](COC(=O)c3cncc(Br)c3)CN(C)[C@@H]1Cc1cn(C)c3cccc2c13 [NICERGOLINE] |
| Compound metabolized | CC(=O)OCC(=O)[C@@]1(O)[C@@H](C)C[C@H]2[C@@H]3CCC4=CC(=O)C=C[C@]4(C)[C@@]3(F)[C@@H](O)C[C@@]21C [BETAMETHASONE ACETATE] |

Assay: as §1, with “on WLS-086” for “on Z-019”, “to human” for “to rat”, “number: ERS12561752” for “number: ERS12561818”
Conditions: 2 µM

| Bacterial Biotransformation | SMILES |
| --- | --- |
| Compound metabolized | CO[C@]12C[C@@H](COC(=O)c3cncc(Br)c3)CN(C)[C@@H]1Cc1cn(C)c3cccc2c13 [NICERGOLINE] |
| Compound metabolized | CC(=O)OCC(=O)[C@@]1(O)[C@@H](C)C[C@H]2[C@@H]3CCC4=CC(=O)C=C[C@]4(C)[C@@]3(F)[C@@H](O)C[C@@]21C [BETAMETHASONE ACETATE] |

Assay: as §1, with “on WLS-073” for “on Z-019”, “to human” for “to rat”, “number: ERS12561749” for “number: ERS12561818”
Conditions: 2 µM

| Bacterial Biotransformation | SMILES |
| --- | --- |
| Compound metabolized | CO[C@]12C[C@@H](COC(=O)c3cncc(Br)c3)CN(C)[C@@H]1Cc1cn(C)c3cccc2c13 [NICERGOLINE] |
| Compound NOT metabolized | CC(=O)OCC(=O)[C@@]1(O)[C@@H](C)C[C@H]2[C@@H]3CCC4=CC(=O)C=C[C@]4(C)[C@@]3(F)[C@@H](O)C[C@@]21C [BETAMETHASONE ACETATE] |

Assay: as §1, with “on WLS-038” for “on Z-019”, “to human” for “to rat”, “number: ERS12561745” for “number: ERS12561818”
Conditions: 2 µM

| Bacterial Biotransformation | SMILES |
| --- | --- |
| Compound NOT metabolized | CO[C@]12C[C@@H](COC(=O)c3cncc(Br)c3)CN(C)[C@@H]1Cc1cn(C)c3cccc2c13 [NICERGOLINE] |
| Compound metabolized | CC(=O)OCC(=O)[C@@]1(O)[C@@H](C)C[C@H]2[C@@H]3CCC4=CC(=O)C=C[C@]4(C)[C@@]3(F)[C@@H](O)C[C@@]21C [BETAMETHASONE ACETATE] |

Assay: as §1, with “on WLS-007” for “on Z-019”, “to human” for “to rat”, “number: ERS12561742” for “number: ERS12561818”
Conditions: 2 µM

| Bacterial Biotransformation | SMILES |
| --- | --- |
| Compound NOT metabolized | CO[C@]12C[C@@H](COC(=O)c3cncc(Br)c3)CN(C)[C@@H]1Cc1cn(C)c3cccc2c13 [NICERGOLINE] |
| Compound metabolized | CC(=O)OCC(=O)[C@@]1(O)[C@@H](C)C[C@H]2[C@@H]3CCC4=CC(=O)C=C[C@]4(C)[C@@]3(F)[C@@H](O)C[C@@]21C [BETAMETHASONE ACETATE] |

Conditions: human gut metagenome, 24 h, 2 µM

| Bacterial Biotransformation | SMILES |
| --- | --- |
| Compound NOT metabolized | CO[C@]12C[C@@H](COC(=O)c3cncc(Br)c3)CN(C)[C@@H]1Cc1cn(C)c3cccc2c13 [NICERGOLINE] |
| Compound NOT metabolized | CC(=O)OCC(=O)[C@@]1(O)[C@@H](C)C[C@H]2[C@@H]3CCC4=CC(=O)C=C[C@]4(C)[C@@]3(F)[C@@H](O)C[C@@]21C [BETAMETHASONE ACETATE] |

Conditions: human gut metagenome, 24 h, 2 µM
Remark: another data set of the same source

| Bacterial Biotransformation | SMILES |
| --- | --- |
| Compound NOT metabolized | CO[C@]12C[C@@H](COC(=O)c3cncc(Br)c3)CN(C)[C@@H]1Cc1cn(C)c3cccc2c13 [NICERGOLINE] |
| Compound metabolized | CC(=O)OCC(=O)[C@@]1(O)[C@@H](C)C[C@H]2[C@@H]3CCC4=CC(=O)C=C[C@]4(C)[C@@]3(F)[C@@H](O)C[C@@]21C [BETAMETHASONE ACETATE] |

Conditions: human gut metagenome, 24 h, 2 µM
Remark: another data set of the same source

| Bacterial Biotransformation | SMILES |
| --- | --- |
| Compound NOT metabolized | CO[C@]12C[C@@H](COC(=O)c3cncc(Br)c3)CN(C)[C@@H]1Cc1cn(C)c3cccc2c13 [NICERGOLINE] |
| Compound metabolized | CC(=O)OCC(=O)[C@@]1(O)[C@@H](C)C[C@H]2[C@@H]3CCC4=CC(=O)C=C[C@]4(C)[C@@]3(F)[C@@H](O)C[C@@]21C [BETAMETHASONE ACETATE] |

Conditions: human gut metagenome, 24 h, 2 µM
Remark: another data set of the same source

| Bacterial Biotransformation | SMILES |
| --- | --- |
| Compound NOT metabolized | CO[C@]12C[C@@H](COC(=O)c3cncc(Br)c3)CN(C)[C@@H]1Cc1cn(C)c3cccc2c13 [NICERGOLINE] |
| Compound metabolized | CC(=O)OCC(=O)[C@@]1(O)[C@@H](C)C[C@H]2[C@@H]3CCC4=CC(=O)C=C[C@]4(C)[C@@]3(F)[C@@H](O)C[C@@]21C [BETAMETHASONE ACETATE] |

Conditions: human gut metagenome, 24 h, 2 µM
Remark: another data set of the same source

| Bacterial Biotransformation | SMILES |
| --- | --- |
| Compound NOT metabolized | CO[C@]12C[C@@H](COC(=O)c3cncc(Br)c3)CN(C)[C@@H]1Cc1cn(C)c3cccc2c13 [NICERGOLINE] |
| Compound metabolized | CC(=O)OCC(=O)[C@@]1(O)[C@@H](C)C[C@H]2[C@@H]3CCC4=CC(=O)C=C[C@]4(C)[C@@]3(F)[C@@H](O)C[C@@]21C [BETAMETHASONE ACETATE] |

Conditions: human gut metagenome, 24 h, 2 µM
Remark: another data set of the same source

| Bacterial Biotransformation | SMILES |
| --- | --- |
| Compound NOT metabolized | CO[C@]12C[C@@H](COC(=O)c3cncc(Br)c3)CN(C)[C@@H]1Cc1cn(C)c3cccc2c13 [NICERGOLINE] |
| Compound metabolized | CC(=O)OCC(=O)[C@@]1(O)[C@@H](C)C[C@H]2[C@@H]3CCC4=CC(=O)C=C[C@]4(C)[C@@]3(F)[C@@H](O)C[C@@]21C [BETAMETHASONE ACETATE] |

Conditions: human gut metagenome, 24 h, 2 µM
Remark: another data set of the same source

| Bacterial Biotransformation | SMILES |
| --- | --- |
| Compound NOT metabolized | CO[C@]12C[C@@H](COC(=O)c3cncc(Br)c3)CN(C)[C@@H]1Cc1cn(C)c3cccc2c13 [NICERGOLINE] |
| Compound metabolized | CC(=O)OCC(=O)[C@@]1(O)[C@@H](C)C[C@H]2[C@@H]3CCC4=CC(=O)C=C[C@]4(C)[C@@]3(F)[C@@H](O)C[C@@]21C [BETAMETHASONE ACETATE] |

Conditions: human gut metagenome, 24 h, 2 µM
Remark: another data set of the same source

| Bacterial Biotransformation | SMILES |
| --- | --- |
| Compound NOT metabolized | CO[C@]12C[C@@H](COC(=O)c3cncc(Br)c3)CN(C)[C@@H]1Cc1cn(C)c3cccc2c13 [NICERGOLINE] |
| Compound metabolized | CC(=O)OCC(=O)[C@@]1(O)[C@@H](C)C[C@H]2[C@@H]3CCC4=CC(=O)C=C[C@]4(C)[C@@]3(F)[C@@H](O)C[C@@]21C [BETAMETHASONE ACETATE] |

— ChEMBL document CHEMBL5724914, “Linking interpersonal differences in gut microbiota composition and drug biotransformation activity” (2024)
